The test concerns the target GCN2 (Homo sapiens, UniProt Q9P2K8). Put plainly: GCN2 enzymatic endpoint assay: phosphorylation of GFP-eIF2α measured by TR-FRET (Lanthascreen). The class given is biochemical. In outline: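 Reaction started with 2 μM ATP and 80 nM GFP-labelled eIF2α substrate at room temperature, stopped with EDTA after 90 minutes. Phospho-eIF2α detected by terbium-labelled antibody TR-FRET; activity taken as 520 nm (fluorescein) to 495 nm (terbium) emission ratio.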

Where [1] appears, read: tested as described in Example 77, compound and/or hydrochloride, dihydrochloride or trifluoroacetic acid salt, read-out: IC 50 Activity.
The mark [2] stands for this setting: GCN2 biochemical IC50, 4 nM GCN2, 2 μM ATP, 80 nM GFP-eIF2α, 90 min RT, read-out: GCN2 activity.

Like-named read-outs stand apart in the source and are kept apart here. Some results are limits rather than exact numbers.

GCN2, sequence (Q9P2K8 whole entry): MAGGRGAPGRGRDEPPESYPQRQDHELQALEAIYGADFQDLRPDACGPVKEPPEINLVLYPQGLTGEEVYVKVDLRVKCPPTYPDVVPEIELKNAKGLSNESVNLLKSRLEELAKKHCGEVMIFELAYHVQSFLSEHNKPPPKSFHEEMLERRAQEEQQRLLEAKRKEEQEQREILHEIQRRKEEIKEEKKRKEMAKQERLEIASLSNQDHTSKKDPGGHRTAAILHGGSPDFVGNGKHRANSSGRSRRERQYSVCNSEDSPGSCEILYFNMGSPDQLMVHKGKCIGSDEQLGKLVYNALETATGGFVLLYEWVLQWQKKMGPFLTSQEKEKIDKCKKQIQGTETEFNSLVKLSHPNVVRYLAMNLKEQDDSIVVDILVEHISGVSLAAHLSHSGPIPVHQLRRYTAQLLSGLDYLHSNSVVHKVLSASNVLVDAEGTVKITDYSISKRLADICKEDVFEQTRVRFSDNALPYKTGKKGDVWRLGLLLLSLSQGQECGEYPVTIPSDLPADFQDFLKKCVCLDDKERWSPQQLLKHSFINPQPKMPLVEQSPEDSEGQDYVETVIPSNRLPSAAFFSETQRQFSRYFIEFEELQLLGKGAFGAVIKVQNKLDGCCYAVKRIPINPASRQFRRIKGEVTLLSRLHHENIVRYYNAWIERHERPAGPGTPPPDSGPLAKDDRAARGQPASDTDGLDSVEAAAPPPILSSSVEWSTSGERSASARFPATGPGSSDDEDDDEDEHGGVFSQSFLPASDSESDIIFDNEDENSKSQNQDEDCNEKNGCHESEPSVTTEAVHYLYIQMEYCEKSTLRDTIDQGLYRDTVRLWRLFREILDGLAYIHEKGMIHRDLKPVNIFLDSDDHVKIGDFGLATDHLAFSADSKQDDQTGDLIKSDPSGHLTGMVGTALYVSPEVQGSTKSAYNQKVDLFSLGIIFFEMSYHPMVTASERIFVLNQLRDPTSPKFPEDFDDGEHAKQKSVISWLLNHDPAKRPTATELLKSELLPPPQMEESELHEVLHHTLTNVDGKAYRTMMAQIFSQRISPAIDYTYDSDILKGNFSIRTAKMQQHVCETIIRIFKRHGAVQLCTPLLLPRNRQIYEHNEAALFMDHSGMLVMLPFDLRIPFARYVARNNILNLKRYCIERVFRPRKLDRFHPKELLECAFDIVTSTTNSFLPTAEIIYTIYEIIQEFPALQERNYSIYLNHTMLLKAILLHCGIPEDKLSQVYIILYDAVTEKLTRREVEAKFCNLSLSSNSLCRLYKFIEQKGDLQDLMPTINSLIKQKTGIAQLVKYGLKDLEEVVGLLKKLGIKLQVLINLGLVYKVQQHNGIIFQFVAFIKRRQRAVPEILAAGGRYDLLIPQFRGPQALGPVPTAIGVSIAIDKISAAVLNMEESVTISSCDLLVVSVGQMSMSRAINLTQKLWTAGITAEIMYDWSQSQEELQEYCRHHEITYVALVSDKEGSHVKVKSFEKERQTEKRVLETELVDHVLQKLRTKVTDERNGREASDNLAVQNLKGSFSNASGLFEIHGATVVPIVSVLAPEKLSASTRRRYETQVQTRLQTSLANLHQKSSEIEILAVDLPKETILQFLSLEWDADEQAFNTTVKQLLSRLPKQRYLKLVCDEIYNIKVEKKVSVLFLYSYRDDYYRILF

As for `CNC(=O)[C@]1(C)CC[C@@H](Nc2ncc3c(Br)nn(-c4cc(Cl)cc(C5COC(=O)N5C)c4)c3n2)C1` (stereo partly drawn) [(1R,3R)-3-[[3-bromo-1-[3-chloro-5-(3-methyl-2-oxo-oxazolidin-4-yl)phenyl]pyrazolo[3,4-d]pyrimidin-6-yl]amino]-N,1-dimethyl-cyclopentanecarboxamide], the IC50 under setting [1] was 25 to 200 nM.
Same read-out and setting: next, `CNC(=O)[C@]1(C)CC[C@@H](Nc2ncc3c(Br)nn(-c4cccc(CCS(C)(=O)=O)c4)c3n2)C1` [(1R,3R)-3-[[3-bromo-1-[3-(2-methyl-sulfonylethyl)phenyl]pyrazolo[3,4-d]pyrimidin-6-yl]amino]-N,1-dimethyl-cyclopentanecarboxamide]: 25 to 200 nM; `CNC(=O)C1(C)CC[C@@H](Nc2ncc3c(Br)nn(-c4cc(C)cc(CO)c4)c3n2)C1` (stereo partly drawn) [(3R)-3-[[3-bromo-1-[3-(hydroxymethyl)-5-methyl-phenyl]pyrazolo[3,4-d]pyrimidin-6-yl]amino]-N,1-dimethyl-cyclopentanecarboxamide]: 25 to 200 nM; `O=C1CN(C(=O)[C@@H]2CC[C@@H](Nc3ncc4c(Br)nn(-c5cc(C(F)F)c6ncccc6c5)c4n3)C2)CCN1` [4-((1R,3R)-3-((3-bromo-1-(8-(difluoromethyl)quinolin-6-yl)-1H-pyrazolo[3,4-d]pyrimidin-6-yl)amino)cyclopentane-1-carbonyl)piperazin-2-one]: 25 to 200 nM.
For `CNC(=O)[C@]1(C)CC[C@@H](Nc2ncc3c(Br)nn(-c4cc(Br)cc(C(C)O)c4)c3n2)C1` (stereo partly shown), the IC50 under setting [1] is 25 to 200 nM.
As to `CN1CCN(C(=O)[C@@H]2CC[C@@H](Nc3ncc4c(Br)nn(-c5cc(C#N)c6ncccc6c5)c4n3)C2)CC1=O` [6-(3-bromo-6-(((1R,3R)-3-(4-methyl-3-oxo-piperazine-1-carbonyl)cyclopentyl)amino)-1H-pyrazolo[3,4-d]pyrimidin-1-yl)quinoline-8-carbonitrile], under setting [1], the IC50 lay in the range of 25 to 200 nM.
Same read-out and setting: next, `CNC(=O)[C@]1(C)CC[C@@H](Nc2ncc3c(Br)nn(-c4ccc(C5=NOCC5)cc4)c3n2)C1` [(1R,3R)-3-[[3-bromo-1-[4-(4,5-dihydro-isoxazol-3-yl)phenyl]pyrazolo[3,4-d]pyrimidin-6-yl]amino]-N,1-dimethyl-cyclopentanecarboxamide]: 25 to 200 nM; `CNC(=O)[C@]1(C)CC[C@@H](Nc2ncc3c(Br)nn(-c4cc(CC(C)O)c5ncccc5c4)c3n2)C1` (stereo partly drawn) [(1R,3R)-3-[[3-bromo-1-[8-(2-hydroxy-propyl)-6-quinolyl]pyrazolo[3,4-d]pyrimidin-6-yl]amino]-N,1-dimethyl-cyclopentanecarboxamide]: less than 25 nM.
Same read-out and setting: next, `CC1(C(=O)NCC(F)F)CC[C@@H](Nc2ncc3c(Br)nn(-c4cc(F)c5ncccc5c4)c3n2)C1` (stereo partly drawn) [(3R)-3-[[3-bromo-1-(8-fluoro-6-quinolyl)pyrazolo[3,4-d]pyrimidin-6-yl]amino]-N-(2,2-difluoroethyl)-1-methyl-cyclopentane-carboxamide]: 25 to 200 nM; `O=C([C@@H]1CC[C@@H](Nc2ncc3c(Br)nn(-c4cc(F)c5ncccc5c4)c3n2)C1)N1CCC2(CNC2)C(F)(F)C1` [[(1R,3R)-3-[[3-bromo-1-(8-fluoro-6-quinolyl)pyrazolo[3,4-d]pyrimidin-6-yl]amino]cyclo-pentyl]-(5,5-difluoro-2,7-diazaspiro[3.5]nonan-7-yl)methanone]: less than 25 nM.
Turning to `CNC(=O)[C@]1(C)CC[C@@H](Nc2ncc3c(Br)nn(-c4ccc5nccnc5c4)c3n2)C1` (single isomer, unassigned) [Example 11], the IC50 under setting [2] is 25 to 200 nM.
On to `CNC(=O)[C@]1(C)CC[C@@H](Nc2ncc3c(Br)nn(-c4ccc5c(c4)OCC(=O)N5CC(F)(F)F)c3n2)C1` [(1R,3R)-3-[[3-bromo-1-[3-oxo-4-(2,2,2-trifluoroethyl)-1,4-benzoxazin-7-yl]pyrazolo [3,4-d]pyrimidin-6-yl]amino]-N,1-dimethyl-cyclopentanecarboxamide], for which the IC50 under setting [1] fell in the range of 25 to 200 nM.
As for `CNC(=O)[C@]1(C(C)C)CC[C@@H](Nc2ncc3c(Br)nn(-c4cc([C@@H](C)N)c5nccnc5c4)c3n2)C1`, the IC50 under setting [1] was less than 25 nM.
The same measure, in the same setting: next, `O=C(N[C@H]1CC[C@@](O)(C(F)(F)F)CC1)[C@@H]1CC[C@@H](Nc2ncc3c(Br)nn(-c4ccc5ncccc5c4)c3n2)C1`: 25 to 200 nM; `CNC(=O)C1(C)CC[C@@H](Nc2ncc3c(Br)nn(-c4cccc(C(C)(C)O)c4)c3n2)C1` (stereo partly drawn) [(3R)-3-[[3-bromo-1-[3-(1-hydroxy-1-methyl-ethyl)phenyl]pyrazolo[3,4-d]pyrimidin-6-yl]amino]-N,1-dimethyl-cyclopentane-carboxamide]: 25 to 200 nM; `O=C([C@@H]1CC[C@@H](Nc2ncc3c(Br)nn(-c4cc(F)c5ncccc5c4)c3n2)C1)N1CCN2C(=O)CC[C@H]2C1` [(8aS)-2-[(1R,3R)-3-[[3-bromo-1-(8-fluoro-6-quinolyl)pyrazolo[3,4-d]pyrimidin-6-yl]amino]cyclopentane-carbonyl]-1,3,4,7,8,8a-hexahydro-pyrrolo[1,2-a]pyrazin-6-one]: less than 25 nM.
Consider `Cn1cnc2ccc(-n3nc(Br)c4cnc(N[C@@H]5CC[C@@](C)(O)C5)nc43)cc2c1=O` [Example 70, 6-(3-bromo-6-(((1R,3R)-3-hydroxy-3-methylcyclopentyl)amino)-1H-pyrazolo[3,4-d]pyrimidin-1-yl)-3-methylquinazolin-4(3H)-one], for which the IC50 under setting [2] was less than 25 nM.
As for `CNC(=O)[C@]1(C)CC[C@@H](Nc2ncc3c(Br)nn(-c4ccc(-c5ncco5)c(NC(=O)C5CCNCC5)c4)c3n2)C1` [N-[5-[3-bromo-6-[[(1R,3R)-3-methyl-3-(methylcarbamoyl)cyclopentyl]amino]pyrazolo[3,4-d]pyrimidin-1-yl]-2-oxazol-2-yl-phenyl]piperidine-4-carboxamide], under setting [1], the IC50 was less than 25 nM.
`Cc1nnc(-c2ccc(-n3nc(Br)c4cnc(N[C@@H]5CC[C@@H](C(=O)N6CCNC(=O)C6)C5)nc43)cc2)o1` [Example 22, 4-((1R,3R)-3-((3-bromo-1-(4-(5-methyl-1,3,4-oxadiazol-2-yl)phenyl)-1H-pyrazolo[3,4-d]pyrimidin-6-yl)amino)cyclopentane-1-carbonyl)piperazin-2-one]: the IC50 under setting [2] lay in the range of 25 to 200 nM.

Source of the values: patent US11046699B2, “Pyrazolo-pyrimidin-amino-cycloalkyl compounds and their therapeutic uses” (RAPT THERAPEUTICS, INC., priority 2018, dated 2021).
